Measured values as given in patent US10941158B2, “Pyrazole ACC inhibitors and uses thereof” (Gilead Apollo, LLC, priority 2015, dated 2021).
In brackets after ≈: the same amount, converted by molar mass. Read-outs that look alike come from different tables or passages of the source.

How the values were obtained:
[1] = tested on: C. parapsilosis ATCC 22019; test: Anti-Fungal (Candida) Activity Assay, broth microtiter MIC; assay type: cell-based; conditions: Lodderomyces parapsilosis, read-out: MIC C. parapsilosis ATCC 22019
Summary of the method: (§1)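 MIC by visual comparison of challenged wells with growth control, scored at 48 h. Setup: CLSI M27-A3 broth microtiter plates, RPMI 1640+MOPS medium, direct colony suspension from overnight Sabouraud agar cultures (35 °C, 24 h).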

C. albicans ATCC 90028 = test: as above; assay type: cell-based; conditions: read-out: MIC C. albicans ATCC 90028
Summary of the method: as §1

C. krusei ATCC 6258 = test: as above; assay type: cell-based; conditions: Pichia kudriavzevii, read-out: MIC C. krusei ATCC 6258
Summary of the method: as §1

human (hACC2) ACC2 = human (hACC2) ACC2 (Homo sapiens, UniProt O00763); test: In vitro Acetyl-CoA Carboxylase (ACC) inhibition assay (ADP-Glo), hACC2; assay type: biochemical
Procedure: The detailed procedure is as follows. […] 10 μL ADP glo reagent was added. […] 20 μL kinase detection reagent was added.
“NA” stands for “not assayed.”

Botrtyis cinerea (Bc) = test: Growth inhibition assay of fungal pathogens; assay type: cell-based; conditions: 48 h, read-out: Concentration at 90% Inhibition Bc
Summary of the method: (§2)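 OD600 (blank-subtracted) plus visual scoring at 48 h, vs 2% DMSO ctrl → % inhibition. Final cpd 50/10/2 or 2/0.4/0.08 ppm. Fm/Bc/Dm spores in 17% V8 broth; Rs as 1.5 mm plugs in ¼ PDB.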

Rhizoctonia solani (Rs) = test: Growth inhibition assay of fungal pathogens; assay type: cell-based; conditions: 48 h, read-out: Concentration at 90% Inhibition Rs
Summary of the method: as §2

Diplodia maydis (Dm) = test: Growth inhibition assay of fungal pathogens; assay type: cell-based; conditions: Stenocarpella maydis, 48 h, read-out: Concentration at 90% Inhibition Dm
Summary of the method: as §2

Septoria tritici (St) = test: Growth inhibition assay of fungal pathogens; assay type: cell-based; conditions: for IC90: Zymoseptoria tritici, read-out: Concentration at 90% Inhibition St
Summary of the method: (§3)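 Percent growth inhibition was derived from 48 h OD600 and visual scores relative to 2% DMSO, with blank background subtraction. Fungi were grown from spores in 17% V8 liquid medium, R. solani from 1.5 mm plugs in ¼ PDB, with compound at final 50/10/2 or 2/0.4/0.08 ppm.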

[2] = tested on: Collectotrichum graminicola (Cg); test: Growth inhibition assay of fungal pathogens; assay type: cell-based; conditions: 48 h, read-out: Concentration at 90% Inhibition Cg
Summary of the method: as §3

[3] = tested on: Fusarium virguliforme (Fv); test: Growth inhibition assay of fungal pathogens; assay type: cell-based; conditions: 48 h
Summary of the method: as §3

[4] = tested on: Phytophthora capsici (Pc); test: Growth inhibition assay of fungal pathogens; assay type: cell-based; conditions: for IC90: Phytophthora capsici, read-out: Concentration at 90% Inhibition Pc
Summary of the method: as §3

[5] = tested on: Fusarium moniliforme (Fm); test: Growth inhibition assay of fungal pathogens; assay type: cell-based; conditions: Fusarium verticillioides, 48 h, read-out: Concentration at 90% Inhibition Fm
Summary of the method: as §2

fungal (fACC2) ACC2 = fungal (fACC2) ACC2 (UniProt Q00955); conditions: read-out: fACC2 IC50; fungal ACC2, ADP-Glo
[6] = ATCC22019, 3 replicates, MIC recorded at 48 h
[7] = ATCC90028, 3 replicates, MIC recorded at 48 h
[8] = ATCC6258, 3 replicates, MIC recorded at 48 h
[9] = Table 4b, 48 hours, read-out: Concentration at 90% Inhibition Fv

fungal (fACC2) ACC2, sequence (Q00955 whole entry): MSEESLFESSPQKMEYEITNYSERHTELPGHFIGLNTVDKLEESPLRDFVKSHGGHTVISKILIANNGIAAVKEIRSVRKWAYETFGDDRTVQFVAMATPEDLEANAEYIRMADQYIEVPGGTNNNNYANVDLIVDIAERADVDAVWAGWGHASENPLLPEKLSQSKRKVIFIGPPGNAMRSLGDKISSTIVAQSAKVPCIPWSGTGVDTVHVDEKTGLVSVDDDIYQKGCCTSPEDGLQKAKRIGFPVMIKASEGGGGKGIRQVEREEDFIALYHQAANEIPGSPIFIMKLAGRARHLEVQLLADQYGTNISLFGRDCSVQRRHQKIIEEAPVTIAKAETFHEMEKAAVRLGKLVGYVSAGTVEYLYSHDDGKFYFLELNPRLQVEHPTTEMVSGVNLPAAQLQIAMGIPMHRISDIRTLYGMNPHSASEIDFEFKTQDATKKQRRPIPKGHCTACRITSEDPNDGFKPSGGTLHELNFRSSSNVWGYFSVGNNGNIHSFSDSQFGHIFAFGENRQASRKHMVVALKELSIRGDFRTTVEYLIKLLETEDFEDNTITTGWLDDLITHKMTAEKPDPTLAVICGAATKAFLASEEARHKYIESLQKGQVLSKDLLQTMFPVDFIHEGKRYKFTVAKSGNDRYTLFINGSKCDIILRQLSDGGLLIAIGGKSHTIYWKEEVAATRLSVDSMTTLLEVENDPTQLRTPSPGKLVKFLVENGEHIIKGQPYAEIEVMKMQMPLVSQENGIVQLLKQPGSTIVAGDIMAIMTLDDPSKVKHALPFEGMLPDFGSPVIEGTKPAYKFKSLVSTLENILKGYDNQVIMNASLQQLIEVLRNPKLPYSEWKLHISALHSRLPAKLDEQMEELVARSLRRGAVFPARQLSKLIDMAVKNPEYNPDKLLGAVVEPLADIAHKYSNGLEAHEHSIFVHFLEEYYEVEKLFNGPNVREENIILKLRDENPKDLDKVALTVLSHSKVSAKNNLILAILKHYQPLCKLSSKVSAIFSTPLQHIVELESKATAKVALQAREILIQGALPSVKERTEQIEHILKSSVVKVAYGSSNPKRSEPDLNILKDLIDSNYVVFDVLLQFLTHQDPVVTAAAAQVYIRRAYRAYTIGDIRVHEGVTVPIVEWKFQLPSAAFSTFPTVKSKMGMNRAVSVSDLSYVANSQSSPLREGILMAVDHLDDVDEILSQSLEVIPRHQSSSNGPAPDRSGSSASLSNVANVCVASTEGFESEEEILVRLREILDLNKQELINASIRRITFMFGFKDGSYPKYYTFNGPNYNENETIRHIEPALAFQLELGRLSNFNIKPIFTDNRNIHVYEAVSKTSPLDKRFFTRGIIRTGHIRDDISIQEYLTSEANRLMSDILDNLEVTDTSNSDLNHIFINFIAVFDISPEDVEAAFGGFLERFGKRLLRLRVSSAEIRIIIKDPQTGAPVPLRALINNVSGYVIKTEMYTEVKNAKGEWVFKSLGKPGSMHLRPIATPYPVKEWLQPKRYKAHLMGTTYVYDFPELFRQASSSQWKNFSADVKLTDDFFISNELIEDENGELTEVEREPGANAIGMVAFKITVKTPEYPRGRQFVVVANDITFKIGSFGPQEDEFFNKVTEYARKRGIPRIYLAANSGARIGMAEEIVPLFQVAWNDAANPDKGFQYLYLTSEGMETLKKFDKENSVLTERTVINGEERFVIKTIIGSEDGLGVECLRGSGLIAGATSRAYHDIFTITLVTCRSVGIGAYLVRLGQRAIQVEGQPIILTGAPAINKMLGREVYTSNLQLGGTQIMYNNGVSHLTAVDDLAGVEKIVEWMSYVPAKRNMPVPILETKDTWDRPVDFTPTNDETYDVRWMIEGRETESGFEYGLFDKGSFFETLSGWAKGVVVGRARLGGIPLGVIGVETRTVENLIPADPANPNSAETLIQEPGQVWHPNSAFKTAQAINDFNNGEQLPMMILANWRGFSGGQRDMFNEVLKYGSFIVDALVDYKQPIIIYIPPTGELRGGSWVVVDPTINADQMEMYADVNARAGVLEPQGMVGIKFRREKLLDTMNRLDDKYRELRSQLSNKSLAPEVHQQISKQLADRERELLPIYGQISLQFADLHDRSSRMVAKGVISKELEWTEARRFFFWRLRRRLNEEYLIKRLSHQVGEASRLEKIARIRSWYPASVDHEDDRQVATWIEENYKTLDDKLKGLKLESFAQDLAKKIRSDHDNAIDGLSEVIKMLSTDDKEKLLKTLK
human (hACC2) ACC2, sequence (O00763 whole entry): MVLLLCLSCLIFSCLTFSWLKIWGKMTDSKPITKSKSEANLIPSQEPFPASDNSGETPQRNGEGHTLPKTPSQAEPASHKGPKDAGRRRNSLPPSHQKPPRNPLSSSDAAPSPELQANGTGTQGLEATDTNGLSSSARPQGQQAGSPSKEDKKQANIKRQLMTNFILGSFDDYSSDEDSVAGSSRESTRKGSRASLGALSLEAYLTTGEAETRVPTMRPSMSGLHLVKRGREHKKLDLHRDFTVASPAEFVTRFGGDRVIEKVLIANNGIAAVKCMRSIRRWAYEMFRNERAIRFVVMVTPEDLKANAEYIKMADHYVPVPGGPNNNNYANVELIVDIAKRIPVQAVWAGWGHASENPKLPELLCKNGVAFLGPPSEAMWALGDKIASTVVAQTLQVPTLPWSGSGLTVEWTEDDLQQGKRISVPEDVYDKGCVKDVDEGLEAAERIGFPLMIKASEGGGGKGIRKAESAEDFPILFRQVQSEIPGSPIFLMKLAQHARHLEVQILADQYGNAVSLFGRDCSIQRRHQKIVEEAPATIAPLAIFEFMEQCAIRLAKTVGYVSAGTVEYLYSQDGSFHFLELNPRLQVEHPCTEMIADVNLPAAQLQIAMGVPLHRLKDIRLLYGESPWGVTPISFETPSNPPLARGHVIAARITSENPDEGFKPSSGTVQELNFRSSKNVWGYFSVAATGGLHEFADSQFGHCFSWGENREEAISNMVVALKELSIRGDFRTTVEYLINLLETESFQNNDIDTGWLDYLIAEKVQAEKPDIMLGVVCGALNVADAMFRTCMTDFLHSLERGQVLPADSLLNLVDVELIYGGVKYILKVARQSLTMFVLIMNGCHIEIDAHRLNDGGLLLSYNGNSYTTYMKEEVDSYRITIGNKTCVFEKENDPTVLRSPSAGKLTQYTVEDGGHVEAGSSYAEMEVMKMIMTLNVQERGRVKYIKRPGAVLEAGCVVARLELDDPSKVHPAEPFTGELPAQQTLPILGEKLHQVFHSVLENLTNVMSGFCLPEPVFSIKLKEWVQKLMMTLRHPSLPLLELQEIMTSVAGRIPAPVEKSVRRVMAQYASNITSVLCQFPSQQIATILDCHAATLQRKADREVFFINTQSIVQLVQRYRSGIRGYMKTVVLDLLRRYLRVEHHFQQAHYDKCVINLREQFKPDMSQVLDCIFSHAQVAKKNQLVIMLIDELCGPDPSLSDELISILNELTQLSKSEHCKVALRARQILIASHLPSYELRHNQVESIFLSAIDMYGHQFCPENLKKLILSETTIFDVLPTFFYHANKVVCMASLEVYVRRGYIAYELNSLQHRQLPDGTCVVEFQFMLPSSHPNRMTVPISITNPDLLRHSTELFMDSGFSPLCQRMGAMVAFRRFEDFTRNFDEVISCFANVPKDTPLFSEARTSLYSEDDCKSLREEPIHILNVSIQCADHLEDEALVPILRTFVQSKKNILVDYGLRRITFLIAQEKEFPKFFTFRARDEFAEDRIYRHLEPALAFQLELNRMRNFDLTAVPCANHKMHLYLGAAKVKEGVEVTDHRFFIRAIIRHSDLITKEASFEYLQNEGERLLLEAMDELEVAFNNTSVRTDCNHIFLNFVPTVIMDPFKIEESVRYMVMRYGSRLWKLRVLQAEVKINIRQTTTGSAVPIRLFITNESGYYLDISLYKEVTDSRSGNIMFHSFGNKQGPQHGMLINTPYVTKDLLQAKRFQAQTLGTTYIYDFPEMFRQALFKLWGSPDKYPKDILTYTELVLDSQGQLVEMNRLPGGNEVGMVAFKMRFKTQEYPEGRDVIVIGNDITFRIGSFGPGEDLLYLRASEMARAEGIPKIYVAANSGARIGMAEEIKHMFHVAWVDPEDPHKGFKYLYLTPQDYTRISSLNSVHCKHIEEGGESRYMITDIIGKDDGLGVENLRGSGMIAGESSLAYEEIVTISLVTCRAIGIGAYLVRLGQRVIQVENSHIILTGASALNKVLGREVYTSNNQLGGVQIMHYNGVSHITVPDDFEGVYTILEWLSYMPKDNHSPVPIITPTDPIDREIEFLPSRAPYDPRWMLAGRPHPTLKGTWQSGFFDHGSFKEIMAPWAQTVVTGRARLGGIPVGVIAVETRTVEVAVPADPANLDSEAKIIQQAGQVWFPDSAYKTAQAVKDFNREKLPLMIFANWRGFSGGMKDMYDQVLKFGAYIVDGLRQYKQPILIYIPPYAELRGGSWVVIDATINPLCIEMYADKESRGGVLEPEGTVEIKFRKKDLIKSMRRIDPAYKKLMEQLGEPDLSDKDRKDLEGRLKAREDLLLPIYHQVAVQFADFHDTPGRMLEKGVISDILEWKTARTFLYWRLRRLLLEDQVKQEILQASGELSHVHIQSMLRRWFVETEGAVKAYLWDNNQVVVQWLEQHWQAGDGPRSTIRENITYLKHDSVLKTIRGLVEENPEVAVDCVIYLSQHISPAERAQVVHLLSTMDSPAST

Row | Structure (SMILES) | MIC [1, 6] [µg/mL] | MIC (C. albicans ATCC 90028; [7]) [µg/mL] | MIC (C. krusei ATCC 6258; [8]) [µg/mL] | IC50 (human (hACC2) ACC2) [nM] | IC90 (Botrtyis cinerea (Bc); Table 4b) [µg/mL] | IC90 (Rhizoctonia solani (Rs); Table 4b) [µg/mL] | IC90 (Diplodia maydis (Dm); Table 4b) [µg/mL] | IC90 ([2]; Table 4b) [µg/mL] | IC90 [3, 9] [µg/mL] | IC90 ([5]; Table 4b, 48 hours) [µg/mL] | IC50 (fungal (fACC2) ACC2) [nM] | IC90 (Septoria tritici (St); Table 4b, 48 hours) [µg/mL] | IC90 ([4]; Table 4b, 48 hours) [µg/mL] | other results
1 | COc1ccc(F)cc1[C@H](Cn1c(=O)n(C(C)(C)C(=O)N2CC=CC2)c(=O)c2c(C)c(-n3cccn3)sc21)OC1CCOCC1 [Compound I-45, (R)-3-(1-(2,5-dihydro-1H-pyrrol-1-yl)-2-methyl-1-oxopropan-2-yl)-1-(2-(5-fluoro-2-methoxyphenyl)-2-((tetrahydro-2H-pyran-4-yl)oxy)ethyl)-5-methyl-6-(1H-pyrazol-1-yl)thieno[2,3-d]pyrimidine-2,4(1H,3H)-dione] | 2.1 to 4 (≈ 3.29 to 6.27 µM) | 2.1 to 4 (≈ 3.29 to 6.27 µM) | 0.25 to 1 (≈ 0.392 to 1.57 µM) | 10 to 40 | 10 (≈ 15.7 µM) | 2 (≈ 3.14 µM) | 10 (≈ 15.7 µM) | 2 (≈ 3.14 µM) | 10 (≈ 15.7 µM) | 2 (≈ 3.14 µM) | 0.6 to 3 | – | – | IC90 (Botrtyis cinerea (Bc); Table 4a): > 50 µg/mL; IC90 (Rhizoctonia solani (Rs); Table 4a): 2 µg/mL (≈ 3.14 µM); IC90 (Diplodia maydis (Dm); Table 4a): > 50 µg/mL; Concentration at 90% Inhibition St (Septoria tritici (St); Table 4b, 48 hours): D (“D” provided a compound concentration of >50 ppm at 90% inhibition of fungal pathogens); IC90 (Septoria tritici (St); Table 4a, 48 hours): > 50 µg/mL; IC90 ([2]; Table 4a): 2 µg/mL (≈ 3.14 µM); IC90 ([3]; Table 4a, 48 hours, read-out: Concentration at 90% Inhibition Fv): > 50 µg/mL; IC90 ([4]; Table 4a, 48 hours): > 50 µg/mL; Concentration at 90% Inhibition Pc ([4]; Table 4b, 48 hours): D (“D” provided a compound concentration of >50 ppm at 90% inhibition of fungal pathogens); IC90 ([5]; Table 4a, 48 hours): 2 µg/mL (≈ 3.14 µM)
2 | COCCO[C@@H](Cn1c(=O)n(C(C)(C)C(=O)NC2CCCCC2)c(=O)c2c(C)c(-n3cccn3)sc21)c1cc(F)ccc1OC [Compound I-46, (R)—N-cyclohexyl-2-(1-(2-(5-fluoro-2-methoxyphenyl)-2-(2-methoxyethoxy)ethyl)-5-methyl-2,4-dioxo-6-(1H-pyrazol-1-yl)-1,4-dihydrothieno[2,3-d]pyrimidin-3(2H)-yl)-2-methylpropanamide] | – | – | – | > 40 | 10 (≈ 15.6 µM) | > 50 | > 50 | > 50 | – | – | 0.6 to 3 | – | – | MIC ([1]; ATCC22019, 48 h): > 4.1 µg/mL; MIC (C. albicans ATCC 90028; ATCC90028, 48 h): > 4.1 µg/mL; MIC (C. krusei ATCC 6258; ATCC6258, 48 h): > 4.1 µg/mL; IC90 (Septoria tritici (St); 48 h, Table 4b): > 50 µg/mL; IC90 ([3]; read-out: Concentration at 90% Inhibition Fv, Table 4b, 48 hours): > 50 µg/mL; IC90 ([4]; 48 h, Table 4b): > 50 µg/mL; IC90 [5]: 2 µg/mL (≈ 3.12 µM)
3 | COCCO[C@@H](Cn1c(=O)n(C(C)(C)C(=O)NC2CCC2)c(=O)c2c(C)c(-n3cccn3)sc21)c1cc(F)ccc1OC [Compound I-47, (R)—N-cyclobutyl-2-(1-(2-(5-fluoro-2-methoxyphenyl)-2-(2-methoxyethoxy)ethyl)-5-methyl-2,4-dioxo-6-(1H-pyrazol-1-yl)-1,4-dihydrothieno[2,3-d]pyrimidin-3(2H)-yl)-2-methylpropanamide] | 0.25 to 1 (≈ 0.407 to 1.63 µM) | 0.25 to 1 (≈ 0.407 to 1.63 µM) | 0.25 to 1 (≈ 0.407 to 1.63 µM) | 10 to 40 | 2 (≈ 3.26 µM) | > 50 | > 50 | 10 (≈ 16.3 µM) | 2 (≈ 3.26 µM) | 0.4 (≈ 0.652 µM) | 0.6 to 3 | > 50 | > 50 | –
4 | COCCO[C@@H](Cn1c(=O)n([C@H](C)C(=O)N2CCCC2)c(=O)c2c(C)c(-n3cccn3)sc21)c1cc(F)ccc1OC [Compound I-76, 1-((R)-2-(5-fluoro-2-methoxyphenyl)-2-(2-methoxyethoxy)ethyl)-5-methyl-3-((R)-1-oxo-1-(pyrrolidin-1-yl)propan-2-yl)-6-(1H-pyrazol-1-yl)thieno[2,3-d]pyrimidine-2,4(1H,3H)-dione] | > 4.1 | > 4.1 | > 4.1 | > 40 | > 50 | > 50 | > 50 | > 50 | > 50 | 2 (≈ 3.34 µM) | 3 to 10 | > 50 | > 50 | –
